Reference: US20090197811A1, “ORALLY ADMINISTERED PEPTIDES TO IMPROVE OR PREVENT HEPATIC FIBROSIS” (University of Southern California, priority 2007, published 2009)
Values joined by “and” are separate entries in the source; they are usually repeats but may differ in a detail not shown here. Identical values can stand only once. “Also recorded” adds a separate entry of the source.

What was measured:
Format in all cases: in vivo, mouse
[1] = test system: C57Bl/6J mice; assay: Western diet model: fibrosis by Sirius red whole-section-scanning morphometric image analysis; conditions: summary statement
Experimental: (§1) Studies were performed in male C5713L/6J mice (Jackson Laboratories, Bar Harbor Me.). Six groups were studied (n=3-5, see FIG. 1) with 4 mice per group at the outset, except for group 2, which was started with n=5; 1 mouse died in group 1. Groups 1, 2, and 3 received the Western diet for 9.5 months; during the last 2.5 months of the 9.5 months, group 2 received SR141716 10 mg/kg/day i.g., and group 3 received D-4F, 125 μg/mouse/day, in the drinking water. Groups 4, 5, and 6 received the Western diet for 7 months followed by standard chow for 2.5 months; during the 2.5 months on standard chow, group 5 received SR141716 and group 6 received D-4F as described for groups 2 and 3, respectively. Additional control groups were studied: 6-month old C57Bl/6J mice as age-matched controls (n=5) and C57Bl/6J mice that received the Western diet for 6 months (n=6).
Sirius red staining was performed by the Morphology core of the USC-UCLA Research Center for Alcoholic Liver and Pancreatic Diseases. α-Smooth muscle actin.
Tissue sections stained with Sirius red were scanned by a third-generation Automated Cellular Imaging System (ACIS III), a highly automated microscope-based digital imaging system (Carl Zeiss MicroImaging AIS Inc., Aliso Viejo Calif.). The color of the Sirius red staining in the digitized tissue sections was determined and applied to a pre-existing algorithm that provides the area of a target color in μm^2. The outline of each digitized tissue section was manually traced using the computer's mouse. Areas of large portal tracts and central veins were also outlined manually. The total area (μm^2) of each tissue section and of the total area of large portal tracts and central veins were determined by the image analysis system. The area of fibrosis was calculated as [total area stained by Sirius red minus perivascular staining] as a percentage of the size of the tissue section. This method has the advantage of scanning the entire section, rather than measuring fibrosis in randomly chosen fields.

[2] = test system: C57Bl/6J mice; assay: Western diet model: liver histology, assessment of steatosis and inflammation; conditions: for Fatty Change Degree of fat / Fatty Change Type (predominant type) / Inflammatory Clusters: individual mice
Experimental: as §1
The slides were coded, without the pathologist knowing the specific treatment group that the slides represented. The histology was graded according to a number of histologic features. The degree of fat was graded as to the approximate percentage of hepatocytes containing fat: 0, absent; +/−, less than 5%; 1+, 5-25%; 2+. 26-50%; 3+, 51-75%; 4+, >75%. The fat was also assessed as to whether it was totally macrovesicular, predominantly macrovesicular, totally microvesicular, predominantly microvesicular, or mixed macro- and microvesicular. In addition, the zone was assessed as to whether the fat was perivenular, periportal, diffuse, or focal. Inflammation was graded as absent, scanty (1 to 3 foci/slide), present (scattered, with 4 to 10 foci/slide), present + (scattered, >10 foci/slide but not numerous), and present ++ (numerous). The type of inflammation was graded as totally mononuclear, predominantly mononuclear, totally neutrophilic, predominantly neutrophilic, and mixed mononuclear-neutrophilic. The hydropic change of hepatocytes was graded as absent, mild, and moderate/severe, with the location noted as perivenular, focal or diffuse.

[3] = test system: C57Bl/6J mice; assay: Western diet model: biochemical findings and liver and body weights; conditions: for GSH / TBARS: liver; for ALT / AST / Adiponectin / Cholesterol / Glucose / Insulin / Leptin / Triglycerides: serum
Experimental: SR141716 was a kind gift from Sanofi-Aventis, France. SR141716 was dissolved in water with 0.1% Tween and given daily by gavage for 10 weeks. D-4F is an 18-mer of D-amino acids (Ac-D-W-F-K-A-F-Y-D-K-V-A-E-K-F-K-E-A-F-NH2)^4 (SEQ ID NO: 1) that was commercially synthesized (A & A Laboratories, San Diego Calif.) with 80% purity. D-4F was dissolved in the drinking water at a concentration of 60 μg/ml water for a calculated dose corrected for drug purity of 125 μg D-4F/mouse/day.
The high fat diet used was the RD “Western diet” (Research Diets, D12079B), which contains 41% of calories from fat, 43% calories from carbohydrate, and 17% of calories from protein); this diet was designed to approximate the “typical” human diet of North America and Europe.
as §1
Serum aspartate amino transferase (AST) and alanine aminotransferase (ALT) were measured with the Infinity AST and ALT liquid assay reagent (Thermo Electron Corporation, Louisville Colo., cat #TR70121 and TR71121). Serum triglycerides and cholesterol were measured with the Infinity cholesterol assay reagent (Thermo Electron Corporation, Louisville Colo., cat #TR22321 and TR13315). Serum glucose was measured with the Glucose (HK) assay kit (Sigma, St. Louis, Mo., cat #GAHK-20). Serum insulin was measured with the Mercodia Ultrasensitive mouse insulin ELISA kit (ALPCO Diagnostics, Salem N.H., cat #10 1150-01). The homeostasis model assessment insulin resistance index (HOMA-IR) was calculated as [fasting glucose (mmol/liter)*fasting insulin (microunits/ml)]/22.5^17, 18. Serum leptin was measured with the TiterZyme EIA mouse leptin kit (Assay Designs Inc, Ann Arbor Mich., cat #900-019). Serum adiponectin was measured with the mouse adiponectin kit (Biovendor LLC, Candler N.C., cat #RD 293023100). Thiobarbituric acid reactive substance (TBARS) was measured as previously described^19, 20; in brief, liver was homogenized and diluted 1:1 in 10% ice cold trichloroacetic acid. 0.5 ml supernatant or of a standard solution of 1,1,3,3-tetraethoxypropane was mixed with 0.5 ml of 0.6% (w/v) 4,6-dihydroxy-2-thiopyrimidine. The solution was boiled for 30 min, cooled and centrifuged. Absorbance was measured at 532 nm with a Shimadzu TV-2101 PC spectrophotometer. To measure hepatic glutathione (GSH), liver was homogenized and diluted 1:1 in 10% ice cold trichloroacetic acid. GSH in the supernatant was measured according to the recycling assay of Tietze^21.

[4] = 7 months Western diet followed by 2.5 months Western diet + drug
[5] = 7 months Western diet followed by 2.5 months chow + drug

Q: With Cc1c(C(=O)NN2CCCCC2)nn(-c2ccc(Cl)cc2Cl)c1-c1ccc(Cl)cc1 [SR141716, reference compound] as the compound, how does the “progression of fibrosis after onset of steatohepatitis” value [1] read?
A: prevented progression of fibrosis

Q: What about the “Fatty Change Degree of fat” value [2, 4] of the same compound?
A: 4 (2×) and 3 and 1

Q: What about the “Fatty Change Type (predominant type)” value [2, 4] of the same compound?
A: Microvesicular; also recorded: Mixed; also recorded: Macrovesicular

Q: And the “Inflammatory Clusters” value [2, 4]?
A: 1 and 2 (4×)

Q: What about the “Fatty Change Degree of fat” value [2, 5] of the same compound?
A: 3 (2×) and 2 and 1

Q: And the “Fatty Change Type (predominant type)” value [2, 5]?
A: Microvesicular

Q: What about the “Inflammatory Clusters” value [2, 5] of the same compound?
A: 2 (3×) and 1

Q: What about the “steatohepatitis (summary)” value ([2]; summary statement) of the same compound?
A: improved steatohepatitis

Q: And the Body weight [3, 4]?
A: 29.1 ± 2.0 g

Q: What about the HOMA-IR [3, 4] of the same compound?
A: 8.8 ± 3.6

Q: What about the Liver weight [3, 4] of the same compound?
A: 1.54 ± 0.1 g

Q: And the Body weight [3, 5]?
A: 30.2 ± 1.1 g

Q: And the HOMA-IR [3, 5]?
A: 6.1 ± 2.0

Q: What about the “Liver weight” value [3, 5] of the same compound?
A: 1.39 ± 0.1 g

Q: What about the GSH [3, 4] of the same compound?
A: 68.7 ± 2.0 nmole/mg protein

Q: And the TBARS [3, 4]?
A: 17.1 ± 0.7 nmol/g tissue

Q: What about the GSH [3, 5] of the same compound?
A: 73.8 ± 2.2 nmole/mg protein

Q: What about the TBARS [3, 5] of the same compound?
A: 18.7 ± 1.09 nmol/g tissue

Q: And the ALT [3, 4]?
A: 54.8 ± 12.4 U/L

Q: What about the AST [3, 4] of the same compound?
A: 109.6 ± 10.4 U/L

Q: And the Adiponectin [3, 4]?
A: 18.4 ± 1.8 µg/mL

Q: And the Cholesterol [3, 4]?
A: 112.2 ± 13.7 mg/dL

Q: What about the Glucose [3, 4] of the same compound?
A: 136.3 ± 29.2 mg/dL

Q: And the Insulin [3, 4]?
A: 0.81 ± 0.15 ng/mL

Q: And the Leptin [3, 4]?
A: 2.36 ± 1.05 ng/mL

Q: What about the Triglycerides [3, 4] of the same compound?
A: 33.1 ± 2.2 mg/dL

Q: What about the ALT [3, 5] of the same compound?
A: 59.1 ± 11.4 U/L

Q: What about the AST [3, 5] of the same compound?
A: 69.1 ± 5.5 U/L

Q: And the Adiponectin [3, 5]?
A: 16.5 ± 2.0 µg/mL

Q: What about the Cholesterol [3, 5] of the same compound?
A: 105.3 ± 4.7 mg/dL

Q: What about the Glucose [3, 5] of the same compound?
A: 96.2 ± 3.0 mg/dL

Q: What about the Insulin [3, 5] of the same compound?
A: 0.89 ± 0.27 ng/mL

Q: And the Leptin [3, 5]?
A: 1.95 ± 0.72 ng/mL

Q: And the Triglycerides [3, 5]?
A: 47.0 ± 2.2 mg/dL

Q: What about the “body weight (summary)” value ([3]; summary statement) of the same compound?
A: promoted weight loss

Q: And the “insulin resistance (summary)” value ([3]; summary statement)?
A: decreased insulin resistance

Q: And the “leptin levels (summary)” value ([3]; summary statement)?
A: decreased leptin levels
